Experimental findings from patent US9181279B2, “Cyclic amine derivatives as EP4 receptor antagonists” (ROTTAPHARM BIOTECH S.R.L., priority 2011, dated 2015) are described below.

Molecules are shown by their SMILES.

Data set [1] can be described thus: Pharmacokinetics in male Han Wistar rats, intravenous and oral. To be noted: male Han Wistar rat. The format is in vivo. The method, then: The pharmacokinetics of compounds E7, E17 and E18, were studied in male Han Wistar rats. The rats were treated intravenously and orally (n=3 for each dose route) with compounds formulated as solutions. The rats were fitted with a jugular cannula for serial sampling. A full profile was acquired from each rat. Plasma extracts were quantitatively analyzed using a specific and sensitive LC-MS/MS bioanalytical method. Inter-individual variations between the three rats in each group were limited (CV for pharmacokinetic parameters was below 50%).

For a further data set, the target named is human EP4 receptor (Homo sapiens (Human), UniProt P35408). The data set can be described thus: [3H]-Prostaglandin E2 membrane binding assay toward hEP4 receptors. To be noted: [3H]-PGE2 1 nM, membranes of human EP4/HEK293 transfectant; read-out: Binding pKi (converted). The method, then:
Human embryonic kidney cells (HEK-293) were stably transfected with expression vector for human EP4 receptor in according to the method described in FuGENE®6 Transfection Reagent's manual (Roche Applied Science®). […] Incubation was conducted in a polypropylene 96 multiwell for 90 min (EP4) or 60 min (EP2) at room temperature prior to separation of the bound and free radioligand by vacuum manifold rapid filtration on glass fiber filters (Unifilter GFB96, PerkinElmer Inc) pre-soaked in 0.3% polyethyleneimine.

Chain of human EP4 receptor (P35408 whole entry): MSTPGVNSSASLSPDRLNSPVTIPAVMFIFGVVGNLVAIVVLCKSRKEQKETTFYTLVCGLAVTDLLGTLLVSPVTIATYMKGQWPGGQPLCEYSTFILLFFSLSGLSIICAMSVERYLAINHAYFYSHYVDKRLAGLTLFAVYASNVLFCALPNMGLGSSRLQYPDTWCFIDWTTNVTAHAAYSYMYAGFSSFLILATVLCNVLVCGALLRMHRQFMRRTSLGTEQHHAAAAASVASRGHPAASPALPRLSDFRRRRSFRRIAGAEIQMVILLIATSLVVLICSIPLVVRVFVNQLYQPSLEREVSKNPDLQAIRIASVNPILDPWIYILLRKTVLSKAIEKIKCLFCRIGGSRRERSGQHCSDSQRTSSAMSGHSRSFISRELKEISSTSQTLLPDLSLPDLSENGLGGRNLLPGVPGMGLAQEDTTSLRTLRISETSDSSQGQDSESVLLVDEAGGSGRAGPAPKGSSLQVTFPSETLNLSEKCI

For `O=C(O)c1ccc(C2(NC(=O)C3CC4(CCN3Cc3ccc(C(F)(F)F)cc3)CC4)CC2)cc1` (single isomer, unassigned) [Example E7, 4-(1-(6-(4-(trifluoromethyl)benzyl)-6-azaspiro[2.5]octane-5-carboxamido)cyclopropyl)benzoic acid], in data set [1] (iv, 5 mg/kg), the “AUC 0-t” value worked out at 29200 ng·h/mL, the AUC inf came out at 31800 ng·h/mL, the CLp is 43 mL/h and the Tlast came out at 24 h. In data set [1] (iv, 5 mg/kg), the Vss is 395 mL and the t½ is 7.4 h. In addition, in data set [1] (po, 5 mg/kg), the “AUC 0-t” value is 22900 ng·h/mL, the AUC inf turned out to be 24900 ng·h/mL, the Cmax stood at 5330 ng/mL and the F is 78%. In data set [1] (po, 5 mg/kg), the Tlast is on record as 24 h, the Tmax stood at 0.5 h and the t½ stood at 6.7 h.
In turn, `O=C(O)c1ccc(C2(NC(=O)C3CC(F)(F)CCN3Cc3ccc(C(F)(F)F)cc3)CC2)cc1` (single isomer, unassigned) [Example E18, 4-(1-(4,4-difluoro-1-(4-(trifluoromethyl)benzyl)piperidine-2-carboxamido)cyclopropyl)benzoic acid] registered a Tlast in data set [1] (iv, 1 mg/kg) of 24 h. Besides, in data set [1] (po, 1 mg/kg), the F was determined as 93% and the Tlast stood at 24 h.
On to `O=C(O)c1ccc(C2(NC(=O)[C@H]3CCCCN3Cc3ccc(C(F)(F)F)cc3)CC2)cc1` [Example E4, lithium (R)-4-(1-(1-(4-(trifluoromethyl)benzyl)piperidine-2-carboxamido)cyclopropyl)benzoate], for which the Ki on human EP4 receptor was 39.8 nM.
In data set [1] (po, 1 mg/kg), `O=C(O)c1ccc(C2(NC(=O)[C@H]3CC(F)(F)CCN3Cc3ccc(C(F)(F)F)cc3)CC2)cc1` [Example E17, (R)-4-(1-(4,4-difluoro-1-(4-(trifluoromethyl)benzyl)piperidine-2-carboxamido)cyclopropyl)benzoic acid] came in with an F of 85% and a Tlast of 24 h.
For the compound `C[C@H](NC(=O)[C@H]1CCCN1Cc1ccc(C(F)(F)F)cc1)c1ccc(C(=O)O)cc1` [Example E27, lithium 4-((S)-1-((R)-1-(4-(trifluoromethyl)benzyl)pyrrolidine-2-carboxamido)ethyl)benzoate], the Ki at human EP4 receptor is 50.1 nM.

A word on the t½: it is the time in which the quantity being followed falls by half. Higher therefore signals slow decline. One may read the Cmax as the highest concentration seen after dosing. What is called Tmax is the time at which the peak concentration occurs.
